# ChEMBL document CHEMBL2177079, “Free-Wilson and structural approaches to co-optimizing human and rodent isoform potency for 11β-hydroxysteroid dehydrogenase type 1 (11β-HSD1) inhibitors” (J Med Chem, 2012)
# Assays:
# [1] = Oral bioavailability in Han Wistar rat at 7.4 to 14.7 umol/kg; format: ADME, organism-based; conditions: Han Wistar, in vivo
# [2] = Lipophilicity, log D at pH 7.4; format: physicochemical; conditions: buffer
# [3] = target: 11-beta-hydroxysteroid dehydrogenase 1 (Homo sapiens, UniProt P28845); experiment: Inhibition of human 11beta-HSD1 by HTRF assay
# [4] = target: 11-beta-hydroxysteroid dehydrogenase 1 (Mus musculus, UniProt P50172); experiment: Inhibition of mouse 11beta-HSD1 by HTRF assay
# Sequence of 11-beta-hydroxysteroid dehydrogenase 1 (Mus musculus, UniProt P50172) (P50172 whole entry): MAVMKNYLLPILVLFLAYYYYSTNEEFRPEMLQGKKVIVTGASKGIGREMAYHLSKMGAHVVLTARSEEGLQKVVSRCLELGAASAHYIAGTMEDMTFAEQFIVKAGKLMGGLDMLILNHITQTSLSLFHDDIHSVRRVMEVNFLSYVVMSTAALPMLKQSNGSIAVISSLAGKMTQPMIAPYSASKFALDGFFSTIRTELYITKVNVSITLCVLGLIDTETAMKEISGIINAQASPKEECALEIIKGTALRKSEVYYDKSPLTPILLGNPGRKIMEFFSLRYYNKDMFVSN
# Sequence of 11-beta-hydroxysteroid dehydrogenase 1 (Homo sapiens, UniProt P28845) (P28845 whole entry): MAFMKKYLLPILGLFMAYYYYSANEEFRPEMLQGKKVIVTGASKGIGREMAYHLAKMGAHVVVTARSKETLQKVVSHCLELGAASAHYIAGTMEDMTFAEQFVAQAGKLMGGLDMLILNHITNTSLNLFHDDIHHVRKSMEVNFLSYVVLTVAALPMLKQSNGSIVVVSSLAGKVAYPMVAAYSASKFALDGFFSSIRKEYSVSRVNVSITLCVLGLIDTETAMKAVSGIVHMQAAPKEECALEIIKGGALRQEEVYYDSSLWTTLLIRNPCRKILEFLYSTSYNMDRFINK
bioavailability [1] [%],logD [2],IC50 [3] [nM],IC50 [4] [nM],SMILES
73,1.7,–,–,O=C(N[C@H]1C2CC3CC1C[C@](O)(C3)C2)c1cnc(N[C@H]2CCOC2)nc1C1CC1
86,1.8,–,–,CC(C)(O)CNc1ncc(C(=O)N[C@H]2C3CC4CC2C[C@](O)(C4)C3)c(C2CCC2)n1
–,1.3,–,–,O=C(N[C@H]1C2CC3CC1C[C@](O)(C3)C2)c1cnc(NCCO)nc1C1CCC1
63,2.4,21,25,O=C(N[C@H]1C2CC3CC1C[C@](O)(C3)C2)c1cnc(N[C@@H]2CCOC2)nc1C1CCCC1
83,2.5,–,–,CC(C)Oc1nc(N[C@H]2CCOC2)ncc1C(=O)N[C@H]1C2CC3CC1C[C@](O)(C3)C2
–,0.9,–,55,O=C(N[C@H]1C2CC3CC1C[C@](O)(C3)C2)c1cnc(N[C@H]2CCNC2=O)nc1C1CCCC1
–,2.8,–,42,O=C(N[C@H]1C2CC3CC1C[C@](O)(C3)C2)c1cnc(NC[C@H]2CCCO2)nc1C1CCCC1
9,1.4,–,85,O=C1C[C@H](CNc2ncc(C(=O)N[C@H]3C4CC5CC3C[C@](O)(C5)C4)c(C3CCCC3)n2)CN1
83,3.2,–,19,O=C(N[C@H]1C2CC3CC1C[C@](O)(C3)C2)c1cnc(NC2CCOCC2)nc1OC1CCC1
99,2.8,–,22,O=C(N[C@H]1C2CC3CC1C[C@](O)(C3)C2)c1cnc(N[C@H]2CCOC2)nc1OC1CCC1
46,1.9,–,84,CC(=O)N1CCC(Nc2ncc(C(=O)N[C@H]3C4CC5CC3C[C@](O)(C5)C4)c(C3CCCC3)n2)CC1
–,1.4,–,163,CN(C)C(=O)CNc1ncc(C(=O)N[C@H]2C3CC4CC2C[C@](O)(C4)C3)c(C2CCCC2)n1
–,2,–,42,C[C@H](O)CNc1ncc(C(=O)N[C@H]2C3CC4CC2C[C@](O)(C4)C3)c(C2CCCC2)n1
82,1.8,–,42,O=C(N[C@H]1C2CC3CC1C[C@](O)(C3)C2)c1cnc(N[C@H]2CCOC2)nc1C1CCC1
–,1.6,–,–,O=C(N[C@H]1C2CC3CC1C[C@](O)(C3)C2)c1cnc(N[C@@H]2CCOC2)nc1C1CC1
99,2,–,37,O=C(N[C@H]1C2CC3CC1C[C@](O)(C3)C2)c1cnc(N[C@@H]2CCOC2)nc1C1CCC1
99,2.9,–,16,O=C(N[C@H]1C2CC3CC1C[C@](O)(C3)C2)c1cnc(N[C@@H]2CCOC2)nc1OC1CCC1
–,1.6,–,64,O=C(N[C@H]1C2CC3CC1C[C@](O)(C3)C2)c1cnc(NC2CCS(=O)(=O)CC2)nc1C1CCCC1
53,1.8,–,22,O=C(N[C@H]1C2CC3CC1C[C@](O)(C3)C2)c1cnc(NC2CCOCC2)nc1C1CC1
19,2.6,–,33,O=C(N[C@H]1C2CC3CC1C[C@](O)(C3)C2)c1cnc(NC2COC2)nc1OC1CCC1

bioavailability [1] [%],logD [2],IC50 [3] [nM],IC50 [4] [nM],SMILES
–,2.6,–,38,O=C(N[C@H]1C2CC3CC1C[C@](O)(C3)C2)c1cnc(NC2CCOCC2)nc1C1CCCC1
–,2.1,–,66,O=C(N[C@H]1C2CC3CC1C[C@](O)(C3)C2)c1cnc(NC2COC2)nc1C1CCCC1
33,2.3,–,48,CC(C)(O)CNc1ncc(C(=O)N[C@H]2C3CC4CC2C[C@](O)(C4)C3)c(C2CCCC2)n1
17,2.7,–,36,O=C(N[C@H]1C2CC3CC1C[C@](O)(C3)C2)c1cnc(N[C@H]2CCC[C@H]2O)nc1C1CCCC1
18,1.8,–,50,CC(=O)N1CC[C@@H](Nc2ncc(C(=O)N[C@H]3C4CC5CC3C[C@](O)(C5)C4)c(C3CCCC3)n2)C1
62,2.7,–,–,CC(C)Oc1nc(N[C@@H]2CCOC2)ncc1C(=O)N[C@H]1C2CC3CC1C[C@](O)(C3)C2
–,1.5,–,31,CC(C)(O)CNc1ncc(C(=O)N[C@H]2C3CC4CC2C[C@](O)(C4)C3)c(C2CC2)n1
–,1.6,–,133,O=C1CC[C@@H](Nc2ncc(C(=O)N[C@H]3C4CC5CC3C[C@](O)(C5)C4)c(C3CCCC3)n2)CN1
–,2.7,–,25,"O=C(N[C@H]1C2CC3CC1C[C@](O)(C3)C2)c1cnc(NC[C@@H]2CCCO2)nc1C1CCCC1 (single isomer, unassigned)"
–,2.4,–,73,COCCNc1ncc(C(=O)N[C@H]2C3CC4CC2C[C@](O)(C4)C3)c(C2CCCC2)n1
–,1.1,–,38,O=C(N[C@H]1C2CC3CC1C[C@](O)(C3)C2)c1cnc(NC2COC2)nc1C1CC1
–,2.1,–,31,O=C(N[C@H]1C2CC3CC1C[C@](O)(C3)C2)c1cnc(NC2CCS(=O)(=O)CC2)nc1OC1CCC1
51,2.5,–,31,O=C(N[C@H]1C2CC3CC1C[C@](O)(C3)C2)c1cnc(NCCO)nc1OC1CCC1
–,1.8,–,20,CC(C)(CO)Nc1ncc(C(=O)N[C@H]2C3CC4CC2C[C@](O)(C4)C3)c(C2CC2)n1
–,1.8,–,179,O=C(N[C@H]1C2CC3CC1C[C@](O)(C3)C2)c1cnc(NCCO)nc1C1CCCC1
–,2.5,–,32,CC(C)(CO)Nc1ncc(C(=O)N[C@H]2C3CC4CC2C[C@](O)(C4)C3)c(C2CCCC2)n1
68,2,–,67,C[C@@H](O)CNc1ncc(C(=O)N[C@H]2C3CC4CC2C[C@](O)(C4)C3)c(C2CCCC2)n1
57,2.2,–,53,CC(C)Oc1nc(NC2COC2)ncc1C(=O)N[C@H]1C2CC3CC1C[C@](O)(C3)C2
–,1.1,–,–,O=C(N[C@H]1C2CC3CC1C[C@](O)(C3)C2)c1cnc(NC2CCS(=O)(=O)CC2)nc1C1CCC1
